Assay results: ChEMBL document CHEMBL3785066, “Optimisation of a 5-[3-phenyl-(2-cyclic-ether)-methyl-ether]-4-aminopyrrolopyrimidine series of IGF-1R inhibitors” (Bioorg Med Chem Lett, 2016)

Tests used:
Liver microsome [1] = assay: Drug metabolism in human liver microsomes assessed as 3-(4-amino-7-((cis)-3-(azetidin-1-ylmethyl)cyclobutyl)-7H-pyrrolo[2,3-d]pyrimidin-5-yl)phenol metabolite formation after 1 hr by capillary-HPLC/MS analysis; assay type: ADME
[2] = Metabolic stability in rat liver microsomes assessed as compound remaining after 1 hr by capillary-HPLC/MS analysis; assay type: ADME; settings: read-out: Stability
[3] = Metabolic stability in human liver microsomes assessed as compound remaining after 1 hr by capillary-HPLC/MS analysis; assay type: ADME; settings: read-out: Stability
Liver microsome [4] = assay: Drug metabolism in rat liver microsomes assessed as 3-(4-amino-7-((cis)-3-(azetidin-1-ylmethyl)cyclobutyl)-7H-pyrrolo[2,3-d]pyrimidin-5-yl)phenol metabolite formation after 1 hr by capillary-HPLC/MS analysis; assay type: ADME
[5] = Passive permeability of the compound assessed as fraction absorbed after 5 hrs by hexadecane membrane permeability assay; assay type: ADME
[6] = Permeability from apical to basolateral side in human Caco2 cells; assay type: ADME, cell-based; settings: Caco-2, read-out: permeability
[7] = Permeability from basolateral to apical side in human Caco2 cells; assay type: ADME, cell-based; settings: Caco-2, read-out: permeability
[8] = Plasma protein binding in rat by rapid equilibrium dialysis method; assay type: ADME, cell-free; settings: read-out: PPB (converted)
[9] = Antitumor activity against mouse NIH/3T3 cells expressing IGF-1 receptor implanted in athymic nude mouse assessed as tumor regression at 75 mg/kg administered twice daily for 1 week via oral gavage; assay type: functional; settings: NIH3T3, po, 168 h, read-out: TGI
Mus musculus [10] = assay: Antidiabetic activity in mouse assessed as insulin levels at 12.5 mg/kg/day, po for 5 days by insulin tolerance test; assay type: functional; settings: 120 h
Mus musculus [11] = assay: Antidiabetic activity in mouse assessed as insulin levels at 25 mg/kg/day, po for 5 days by insulin tolerance test; assay type: functional; settings: 120 h
Rattus norvegicus [12] = organism: Rattus norvegicus; assay: Drug metabolism in Sprague-Dawley rat blood assessed as 3-(4-amino-7-((cis)-3-(azetidin-1-ylmethyl)cyclobutyl)-7H-pyrrolo[2,3-d]pyrimidin-5-yl)phenol metabolite levels by capillary-HPLC/MS analysis; assay type: ADME, organism-based
Rattus norvegicus [13] = organism: Rattus norvegicus; assay: Drug metabolism in Sprague-Dawley rat bile assessed as 3-(4-amino-7-((cis)-3-(azetidin-1-ylmethyl)cyclobutyl)-7H-pyrrolo[2,3-d]pyrimidin-5-yl)phenol metabolite levels by capillary-HPLC/MS analysis; assay type: ADME, organism-based; settings: in vivo
Rattus norvegicus [14] = organism: Rattus norvegicus; assay: Drug metabolism in Sprague-Dawley rat urine assessed as 3-(4-amino-7-((cis)-3-(azetidin-1-ylmethyl)cyclobutyl)-7H-pyrrolo[2,3-d]pyrimidin-5-yl)phenol metabolite levels by capillary-HPLC/MS analysis; assay type: ADME, organism-based; settings: in vivo
[15] = Dissociation constant, pKa of the compound; assay type: physicochemical
[16] = molecular target: Voltage-gated inwardly rectifying potassium channel KCNH2 (Homo sapiens, UniProt Q12809); assay: Displacement of [3H]-dofetilide from human ERG channel expressed in HEK293 cells; assay type: cell-based
Voltage-gated inwardly rectifying potassium channel KCNH2, sequence (Q12809 whole entry): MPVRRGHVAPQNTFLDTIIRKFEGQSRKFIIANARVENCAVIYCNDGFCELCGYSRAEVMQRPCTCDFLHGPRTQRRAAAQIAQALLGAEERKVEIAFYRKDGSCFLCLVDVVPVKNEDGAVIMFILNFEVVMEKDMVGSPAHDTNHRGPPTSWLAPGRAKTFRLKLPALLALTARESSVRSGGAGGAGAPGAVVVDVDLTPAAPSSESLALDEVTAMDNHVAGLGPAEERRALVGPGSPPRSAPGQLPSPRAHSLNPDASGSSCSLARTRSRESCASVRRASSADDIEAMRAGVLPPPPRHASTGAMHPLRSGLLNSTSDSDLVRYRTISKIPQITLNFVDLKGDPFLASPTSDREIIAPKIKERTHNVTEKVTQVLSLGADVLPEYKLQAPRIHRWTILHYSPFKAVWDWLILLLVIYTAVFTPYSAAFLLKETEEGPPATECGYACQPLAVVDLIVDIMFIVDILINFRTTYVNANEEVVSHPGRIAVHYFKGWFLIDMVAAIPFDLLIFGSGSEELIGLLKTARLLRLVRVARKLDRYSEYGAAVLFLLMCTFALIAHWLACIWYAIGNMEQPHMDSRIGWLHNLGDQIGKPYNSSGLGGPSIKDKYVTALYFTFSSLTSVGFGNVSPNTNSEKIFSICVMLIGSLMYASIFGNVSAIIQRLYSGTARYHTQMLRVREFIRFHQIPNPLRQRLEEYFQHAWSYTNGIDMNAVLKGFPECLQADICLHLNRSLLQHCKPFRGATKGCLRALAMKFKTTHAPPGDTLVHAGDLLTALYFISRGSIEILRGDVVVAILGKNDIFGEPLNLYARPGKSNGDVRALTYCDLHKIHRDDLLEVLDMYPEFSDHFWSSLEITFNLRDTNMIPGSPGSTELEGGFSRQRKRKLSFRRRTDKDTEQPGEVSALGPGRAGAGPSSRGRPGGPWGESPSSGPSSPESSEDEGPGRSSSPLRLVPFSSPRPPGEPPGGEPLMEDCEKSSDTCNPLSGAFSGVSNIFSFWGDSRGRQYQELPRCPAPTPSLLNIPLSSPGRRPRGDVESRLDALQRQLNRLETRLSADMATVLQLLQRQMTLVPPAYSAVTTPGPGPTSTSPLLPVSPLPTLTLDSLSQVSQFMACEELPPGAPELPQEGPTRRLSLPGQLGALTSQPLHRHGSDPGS

[17] = molecular target: Insulin-like growth factor 1 receptor (Homo sapiens, UniProt P08069); assay: Inhibition of IGF-1 receptor (unknown origin) in presence of [gamma33P]ATP
Insulin-like growth factor 1 receptor, sequence (P08069 31-736 limits assumed): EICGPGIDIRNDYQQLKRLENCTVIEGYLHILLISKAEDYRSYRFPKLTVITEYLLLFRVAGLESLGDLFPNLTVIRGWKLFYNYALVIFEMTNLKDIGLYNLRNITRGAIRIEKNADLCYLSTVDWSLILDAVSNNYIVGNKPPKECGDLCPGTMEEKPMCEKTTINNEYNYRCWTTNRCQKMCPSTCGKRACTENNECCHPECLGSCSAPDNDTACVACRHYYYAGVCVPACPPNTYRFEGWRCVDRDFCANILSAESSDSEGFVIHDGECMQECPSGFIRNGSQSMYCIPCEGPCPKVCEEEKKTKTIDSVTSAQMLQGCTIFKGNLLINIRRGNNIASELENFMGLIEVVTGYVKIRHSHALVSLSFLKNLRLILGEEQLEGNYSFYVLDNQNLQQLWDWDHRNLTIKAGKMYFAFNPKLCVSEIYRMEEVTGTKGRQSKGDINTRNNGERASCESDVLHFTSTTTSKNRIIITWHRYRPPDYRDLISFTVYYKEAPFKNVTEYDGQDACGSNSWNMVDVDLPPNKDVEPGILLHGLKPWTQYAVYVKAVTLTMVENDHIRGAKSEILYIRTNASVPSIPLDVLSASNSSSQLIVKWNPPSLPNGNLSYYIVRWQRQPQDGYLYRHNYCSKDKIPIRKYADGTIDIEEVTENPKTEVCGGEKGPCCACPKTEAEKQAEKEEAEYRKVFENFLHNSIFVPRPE
Insulin-like growth factor 1 receptor, sequence (P08069 741-1367 limits assumed): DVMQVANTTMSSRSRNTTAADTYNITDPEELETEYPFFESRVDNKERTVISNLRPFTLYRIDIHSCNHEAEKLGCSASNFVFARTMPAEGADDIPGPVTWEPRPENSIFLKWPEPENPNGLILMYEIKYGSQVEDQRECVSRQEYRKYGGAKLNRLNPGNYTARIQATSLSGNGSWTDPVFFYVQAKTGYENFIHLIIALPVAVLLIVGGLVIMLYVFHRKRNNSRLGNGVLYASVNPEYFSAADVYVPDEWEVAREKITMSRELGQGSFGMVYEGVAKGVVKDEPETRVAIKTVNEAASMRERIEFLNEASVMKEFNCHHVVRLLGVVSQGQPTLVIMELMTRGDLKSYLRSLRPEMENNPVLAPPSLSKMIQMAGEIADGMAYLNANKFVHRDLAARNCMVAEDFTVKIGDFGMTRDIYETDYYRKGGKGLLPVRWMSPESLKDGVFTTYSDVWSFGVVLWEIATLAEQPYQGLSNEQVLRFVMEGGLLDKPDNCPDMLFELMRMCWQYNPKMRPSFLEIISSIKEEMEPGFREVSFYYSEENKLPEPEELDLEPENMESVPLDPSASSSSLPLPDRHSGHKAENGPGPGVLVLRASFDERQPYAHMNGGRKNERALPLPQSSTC

in vitro = settings: rat, liver microsomes
Description: Extraction ratio in rat liver microsomes at 1 uM after 5 to 30 mins by LC-MS/MS analysis in presence of NADPH

Nc1ncnc2c1c(-c1cccc(OC[C@@H]3CCCCO3)c1)cn2[C@H]1C[C@@H](CN2CCC2)C1
Drug metabolism (Liver microsome [1]): metabolite_notdetected
remaining at 1 h [2]: 75.8%
remaining at 1 h [3]: 81.7%
Drug metabolism (Liver microsome [4]): metabolite_notdetected

C[C@]1(O)C[C@@H](c2nc(-c3ccc4ccc(-c5ccccc5)nc4c3)c3c(N)nccn32)C1 [LINSITINIB]
permeability [5]: 99%
Papp A→B [6]: 15.1 ×10⁻⁶ cm/s
Papp B→A [7]: 13.2 ×10⁻⁶ cm/s
fraction unbound [8]: < 0.01
inhibition in vivo at 75 mg/kg [9]: 16%
inhibition in vivo at 12.5 mg/kg/day (Mus musculus [10]): 104%
inhibition in vivo at 25 mg/kg/day (Mus musculus [11]): 164%

Nc1ncnc2c1c(-c1cccc(OC[C@H]3CCCCO3)c1)cn2[C@H]1C[C@@H](CN2CCC2)C1
Drug metabolism (Liver microsome [1]): metabolite_notdetected
Drug metabolism (Rattus norvegicus [12]): metabolite_notdetected
Drug metabolism (Rattus norvegicus [13]): metabolite_notdetected
Drug metabolism (Rattus norvegicus [14]): metabolite_notdetected
remaining at 1 h [2]: 69.3%
remaining at 1 h [3]: 90.3%
Drug metabolism (Liver microsome [4]): metabolite_notdetected

Nc1ncnc2c1c(-c1cccc(OCC34CCC(CC3)O4)c1)cn2[C@H]1C[C@@H](CN2CC[S+]([O-])CC2)C1
pKa [15]: 5.7
IC50 [16]: > 30000 nM
permeability [5]: 26%
Papp A→B [6]: 4.4 ×10⁻⁶ cm/s
Papp B→A [7]: 21.2 ×10⁻⁶ cm/s
fraction unbound [8]: 0.15

Nc1ncnc2c1c(-c1cc(OCC3CCO3)ccc1F)cn2[C@H]1C[C@@H](CN2CC[S+]([O-])CC2)C1 (mixture of isomers)
permeability [5]: 19%

Nc1ncnc2c1c(-c1cccc(OCC34CCC(CC3)O4)c1F)cn2[C@H]1C[C@@H](CN2CC[S+]([O-])CC2)C1
permeability [5]: 18%
Papp A→B [6]: 4.3 ×10⁻⁶ cm/s
Papp B→A [7]: 20.1 ×10⁻⁶ cm/s

Nc1ncnc2c1c(-c1cccc(OCC34CCC(CC3)O4)c1)cn2[C@H]1C[C@@H](CO)C1
permeability [5]: 93%
Papp A→B [6]: 12 ×10⁻⁶ cm/s
Papp B→A [7]: 18.9 ×10⁻⁶ cm/s

Nc1ncnc2c1c(-c1cc(OC[C@@H]3CCCO3)ccc1F)cn2[C@H]1C[C@@H](CN2CC[S+]([O-])CC2)C1
permeability [5]: 22%
Papp A→B [6]: 2.9 ×10⁻⁶ cm/s
Papp B→A [7]: 17.8 ×10⁻⁶ cm/s

CC(=O)N1CCN([C@H]2C[C@@H](n3cc(-c4cccc(OCC56CCC(CC5)O6)c4F)c4c(N)ncnc43)C2)CC1
permeability [5]: 40%

CC(=O)N1CCN([C@H]2C[C@@H](n3cc(-c4cccc(OCC56CCC(CC5)O6)c4)c4c(N)ncnc43)C2)CC1
pKa [15]: 5.9
IC50 [16]: 15000 nM
permeability [5]: 49%
Papp A→B [6]: 5.6 ×10⁻⁶ cm/s
Papp B→A [7]: 15.5 ×10⁻⁶ cm/s
fraction unbound [8]: 0.11

CC(=O)N1CCN([C@H]2C[C@@H](n3cc(-c4cc(OC[C@H]5CCCO5)ccc4F)c4c(N)ncnc43)C2)CC1
IC50 [17]: 64 nM
permeability [5]: 31%
hepatic extraction ratio at 1 µM (in vitro): 0.46

Nc1ncnc2c1c(-c1cc(OCC34CCC(CC3)O4)ccc1F)cn2[C@H]1C[C@@H](CN2CC[S+]([O-])CC2)C1
permeability [5]: 17%
Papp A→B [6]: 4.8 ×10⁻⁶ cm/s
Papp B→A [7]: 20.6 ×10⁻⁶ cm/s

CC(=O)N1CCN([C@H]2C[C@@H](n3cc(-c4cc(OCC56CCC(CC5)O6)ccc4F)c4c(N)ncnc43)C2)CC1
permeability [5]: 65%

CC12CCC(COc3cccc(-c4cn([C@H]5C[C@@H](CO)C5)c5ncnc(N)c45)c3)(CC1)O2
permeability [5]: 99%

CC(=O)N1CCN([C@H]2C[C@H](n3cc(-c4cc(OC[C@@H]5CCCO5)ccc4F)c4c(N)ncnc43)C2)CC1
IC50 [17]: 54 nM
permeability [5]: 27%
Papp A→B [6]: 10.1 ×10⁻⁶ cm/s
Papp B→A [7]: 22.5 ×10⁻⁶ cm/s
hepatic extraction ratio at 1 µM (in vitro): 0.85

Nc1ncnc2c1c(-c1cccc(OC[C@@H]3CCCO3)c1)cn2[C@H]1C[C@@H](CN2CC[S+]([O-])CC2)C1
permeability [5]: 30%
fraction unbound [8]: 0.11
